Source: ChEMBL document CHEMBL1949658, “3D-QSAR and 3D-QSSR models of negative allosteric modulators facilitate the design of a novel selective antagonist of human α4β2 neuronal nicotinic acetylcholine receptors” (Bioorg Med Chem Lett, 2012)

Key:
[1] = biological target: Neuronal acetylcholine receptor; alpha4/beta2 (Homo sapiens, UniProt P17787+P43681); test: Antagonist activity at human nAChR alpha4/beta2 receptor expressed in HEK ts201 cells assessed as calcium accumulation by fluorescence analysis; assay type: functional, cell-based
Neuronal acetylcholine receptor; alpha4/beta2, sequence (P17787 whole entry): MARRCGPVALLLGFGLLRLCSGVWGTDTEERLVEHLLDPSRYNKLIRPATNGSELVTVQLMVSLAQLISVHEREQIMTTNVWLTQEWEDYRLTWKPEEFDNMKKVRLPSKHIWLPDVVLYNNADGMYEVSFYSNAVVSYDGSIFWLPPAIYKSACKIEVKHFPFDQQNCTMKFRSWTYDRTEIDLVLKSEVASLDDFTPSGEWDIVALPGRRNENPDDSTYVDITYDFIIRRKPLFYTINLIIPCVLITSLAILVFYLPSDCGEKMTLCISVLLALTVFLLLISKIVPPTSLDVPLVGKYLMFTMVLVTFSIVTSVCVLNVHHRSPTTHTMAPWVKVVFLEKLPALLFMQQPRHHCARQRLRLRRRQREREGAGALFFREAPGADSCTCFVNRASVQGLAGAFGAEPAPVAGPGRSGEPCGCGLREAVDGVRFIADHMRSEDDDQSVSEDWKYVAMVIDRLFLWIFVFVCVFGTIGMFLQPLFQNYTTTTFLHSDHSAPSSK
Neuronal acetylcholine receptor; alpha4/beta2, sequence (P43681 whole entry): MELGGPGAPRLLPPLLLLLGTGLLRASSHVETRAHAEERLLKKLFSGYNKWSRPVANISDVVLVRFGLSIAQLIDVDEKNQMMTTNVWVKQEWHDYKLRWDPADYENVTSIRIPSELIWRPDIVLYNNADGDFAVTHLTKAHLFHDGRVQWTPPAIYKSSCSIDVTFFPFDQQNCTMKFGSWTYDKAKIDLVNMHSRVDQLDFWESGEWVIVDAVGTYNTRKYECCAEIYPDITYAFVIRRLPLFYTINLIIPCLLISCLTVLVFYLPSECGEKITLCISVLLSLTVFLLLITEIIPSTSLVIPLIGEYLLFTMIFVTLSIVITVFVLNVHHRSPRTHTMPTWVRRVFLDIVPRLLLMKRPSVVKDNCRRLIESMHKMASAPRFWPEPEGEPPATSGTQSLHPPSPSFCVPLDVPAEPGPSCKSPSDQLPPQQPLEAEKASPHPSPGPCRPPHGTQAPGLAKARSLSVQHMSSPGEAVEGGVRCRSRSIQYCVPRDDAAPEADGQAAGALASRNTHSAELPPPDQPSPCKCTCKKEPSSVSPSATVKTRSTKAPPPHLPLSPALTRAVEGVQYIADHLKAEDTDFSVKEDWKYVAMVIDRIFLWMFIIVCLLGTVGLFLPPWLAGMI

[2] = biological target: Neuronal acetylcholine receptor; alpha3/beta4 (Homo sapiens, UniProt P30926+P32297); test: Antagonist activity at human nAChR alpha3/beta4 receptor expressed in HEK ts201 cells assessed as calcium accumulation by fluorescence analysis; assay type: functional, cell-based
Neuronal acetylcholine receptor; alpha3/beta4, sequence (P30926 whole entry): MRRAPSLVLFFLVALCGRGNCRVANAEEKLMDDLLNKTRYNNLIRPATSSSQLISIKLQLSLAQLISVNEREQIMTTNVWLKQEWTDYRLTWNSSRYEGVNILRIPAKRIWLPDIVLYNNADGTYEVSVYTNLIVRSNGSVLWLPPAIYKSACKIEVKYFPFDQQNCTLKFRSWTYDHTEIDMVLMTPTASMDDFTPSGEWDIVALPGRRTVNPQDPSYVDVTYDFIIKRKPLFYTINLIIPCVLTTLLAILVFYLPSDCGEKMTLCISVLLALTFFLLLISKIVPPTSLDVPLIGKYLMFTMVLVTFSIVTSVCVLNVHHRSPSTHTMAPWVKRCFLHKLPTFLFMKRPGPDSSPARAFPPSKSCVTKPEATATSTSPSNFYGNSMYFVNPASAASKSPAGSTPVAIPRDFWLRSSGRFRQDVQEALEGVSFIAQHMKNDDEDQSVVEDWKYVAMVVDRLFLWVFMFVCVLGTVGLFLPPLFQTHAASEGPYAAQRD
Neuronal acetylcholine receptor; alpha3/beta4, sequence (P32297 whole entry): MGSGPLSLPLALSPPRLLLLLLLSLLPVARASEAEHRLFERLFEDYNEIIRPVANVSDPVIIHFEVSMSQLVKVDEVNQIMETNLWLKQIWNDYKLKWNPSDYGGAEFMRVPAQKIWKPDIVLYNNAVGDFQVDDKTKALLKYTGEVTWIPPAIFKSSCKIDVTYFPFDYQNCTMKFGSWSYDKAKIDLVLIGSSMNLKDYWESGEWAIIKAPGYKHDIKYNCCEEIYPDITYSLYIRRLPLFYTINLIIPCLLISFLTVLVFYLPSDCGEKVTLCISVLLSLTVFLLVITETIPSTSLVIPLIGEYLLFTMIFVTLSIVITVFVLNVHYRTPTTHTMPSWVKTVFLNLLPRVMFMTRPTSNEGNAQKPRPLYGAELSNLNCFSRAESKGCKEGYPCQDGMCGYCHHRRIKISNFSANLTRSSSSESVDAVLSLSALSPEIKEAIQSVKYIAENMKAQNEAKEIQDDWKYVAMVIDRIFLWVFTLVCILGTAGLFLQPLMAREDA

Homo sapiens = species: Homo sapiens; test: Selectivity ratio of pIC50 for human nAChR alpha3/beta4 receptor to pIC50 for human nAChR alpha4/beta2 receptor

Structure (SMILES) | IC50 ([1]; read-out: pIC50 (converted)) [µM] | IC50 ([2]; read-out: pIC50 (converted)) [µM] | Ratio pIC50 (Homo sapiens) | IC50 ([1]; read-out: IC50) [µM] | IC50 ([2]; read-out: IC50) [µM]
CC1CC(=O)N(c2ccccc2C(=O)OCC2CCCN(CCOc3ccc4ccccc4c3)C2)C1=O (stereo not drawn) | 7.41 | 6.76 | -0.04 | – | –
CC1(C)OC2C3CC(C2O1)N(CCCc1ccccc1)CC3OC(=O)c1ccccc1-c1ccccc1 (stereo not drawn) | 11.5 | 13.8 | 0.08 | – | –
O=C(NCC1CCCN(CCCc2ccccc2)C1)c1ccccc1-c1ccccc1 (single isomer, unassigned) | 20 | – | 3.7 | – | –
CC1CC(=O)N(c2ccccc2C(=O)OC2CN(CCCc3ccccc3)C3CC2C2OC(C)(C)OC23)C1=O (stereo not drawn) | – | 30.9 | – | – | –
O=C(OCC1CCCN(CCCn2cc(-c3ccccc3)nn2)C1)c1ccccc1-c1ccccc1 (single isomer, unassigned) | 6.46 | 389 | 1.78 | – | –
CC1CC(=O)N(c2ccccc2C(=O)OCC2CCCN(CCCCCCc3ccccc3)C2)C1=O (stereo not drawn) | 29.5 | – | – | – | –
CC(C)N1CCCC(COC(=O)c2ccccc2N2C(=O)CC(Cc3ccccc3)C2=O)C1 (stereo not drawn) | 8.91 | – | – | – | –
O=C(OCC1=CCCN(CCCc2ccccc2)C1)c1ccccc1N1C(=O)CC(Cc2ccccc2)C1=O (stereo not drawn) | 5.13 | 3.72 | -0.14 | – | –
CC1CC(=O)N(c2ccccc2C(=O)OCC2CCCN(CCCC3CCCCC3)C2)C1=O (stereo not drawn) | 14.5 | 10.7 | -0.14 | – | –
CC1CC(=O)N(c2ccccc2C(=O)CCC2CCCN(CCCCOc3ccc(C(F)(F)F)cc3)C2)C1=O (stereo not drawn) | 7.08 | – | – | – | –
CC1(C)CC(=O)N(c2ccccc2C(=O)OCC2CCCN(CCCc3ccccc3)C2)C1=O (single isomer, unassigned) | 4.9 | 5.01 | 0.01 | – | –
C[C@@H]1CC(=O)N(c2ccccc2C(=O)OC[C@@H]2CCCN(CCCc3ccccc3)C2)C1=O | 8.91 | 9.55 | 0.02 | – | –
O=C(OCC1CCCN(C(=O)CCc2ccccc2)C1)c1ccccc1-c1ccccc1 (stereo not drawn) | 6.03 | 331 | 1.74 | 5.6 | > 100
C[C@H]1CC(=O)N(c2ccccc2C(=O)OC[C@H]2CCCN(CCCc3ccccc3)C2)C1=O | 10.5 | 11 | 0.02 | – | –
CC1CC(=O)N(c2ccccc2C(=O)OCC2CCCN(CCCCCc3ccccc3)C2)C1=O (stereo not drawn) | 24.5 | 4.17 | -0.77 | – | –
CC(C)N1CC(OC(=O)c2ccccc2-c2ccccc2)C2CC1C1OC(C)(C)OC21 (stereo not drawn) | 9.55 | – | – | – | –
CC1CC(=O)N(c2ccccc2C(=O)OCC2CCCN(CCCCOc3ccccc3)C2)C1=O (stereo not drawn) | 1.7 | – | – | – | –
O=C(CCC1CCCNC1)c1ccccc1-c1ccccc1 (stereo not drawn) | 9.12 | 6.61 | -0.14 | – | –
O=C(OCC1CCCN(CCCc2ccccc2)C1)c1ccccc1C(F)(F)F (single isomer, unassigned) | – | – | -0.16 | 8 | 5.5
CC1CC(=O)N(c2ccccc2C(=O)OCC2CCCN(CCOc3cccc(Cl)c3)C2)C1=O (stereo not drawn) | 21.9 | 11.5 | 0.14 | – | –
O=C(OCC1CCCN(CCCc2ccccc2)C1)c1ccccc1-n1cc(-c2ccccc2)nn1 (single isomer, unassigned) | 2.82 | 4.27 | 0.19 | – | –
O=C(OC1CCCN(CCCc2ccccc2)C1)c1ccccc1-c1ccccc1 (single isomer, unassigned) | – | – | – | 6.5 | 2.7
CN1CCCC(COC(=O)c2ccccc2-c2ccccc2)C1 (single isomer, unassigned) | 6.92 | 4.79 | -0.16 | – | –
COc1ccc(OCCCCCN2CCCC(COC(=O)c3coc4ccccc4c3=O)C2)cc1 (stereo not drawn) | 10 | – | – | – | –
CC1CC(=O)N(c2ccccc2C(=O)OC[C@@H]2C[C@H](c3ccccc3)CN(CCCc3ccccc3)C2)C1=O (stereo partly drawn) | 5.37 | – | – | – | –
CCN1CC(OC(=O)c2ccccc2N2C(=O)CC(C)C2=O)C2CC1C1OC(C)(C)OC21 (stereo not drawn) | 12 | 77.6 | 0.81 | – | –
CC(=O)Nc1ccccc1C(=O)OCC1CCCN(CCCc2ccccc2)C1 (stereo not drawn) | 5.5 | 4.27 | -0.11 | – | –

Structure (SMILES) | IC50 ([1]; read-out: pIC50 (converted)) [µM] | IC50 ([2]; read-out: pIC50 (converted)) [µM] | Ratio pIC50 (Homo sapiens) | IC50 ([1]; read-out: IC50) [µM] | IC50 ([2]; read-out: IC50) [µM]
O=C(OCC1CCCN(CCCc2ccccc2)C1)c1ccccc1N1C(=O)c2ccccc2C1=O (single isomer, unassigned) | 5.01 | 5.89 | 0.07 | – | –
CC1CC(=O)N(c2ccccc2C(=O)OC2CN(C(C)C)C3CC2C2OC(C)(C)OC23)C1=O (stereo not drawn) | 7.59 | – | – | – | –
[N-]=[N+]=NCCCN1CCCC(COC(=O)c2ccccc2-c2ccccc2)C1 (single isomer, unassigned) | 4.27 | 1.82 | -0.38 | – | –
O=C(OCC1CCCN(CCCCCOc2ccc(Cl)cc2)C1)c1ccccc1-c1ccccc1 (stereo not drawn) | 14.5 | 15.5 | 0.02 | – | –
CC1CC(=O)N(c2ccccc2C(=O)OCC2CCCN(CCCCCOc3ccc(Cl)c(Cl)c3)C2)C1=O (stereo not drawn) | 17.4 | 9.12 | -0.28 | – | –
COc1ccc(OCCCCCN2CCCC(COC(=O)c3cc(=O)c4ccccc4o3)C2)cc1 (stereo not drawn) | 10.2 | – | – | – | –
CC1CC(=O)N(c2ccccc2C(=O)OC[C@@H]2C[C@H](C3CCCCC3)CN(CCCc3ccccc3)C2)C1=O (stereo partly drawn) | 39.8 | 85.1 | 0.33 | – | –
O=C(OCc1ccccc1-c1ccccc1)C1CCCN(CCCc2ccccc2)C1 (single isomer, unassigned) | 17.8 | 10.2 | 0.24 | – | –
c1ccc(CCCN2CCCC(COCc3cn(Cc4ccccc4-c4ccccc4)nn3)C2)cc1 (stereo not drawn) | 2.88 | 7.24 | 0.39 | – | –
CC1CC(=O)N(c2ccccc2C(=O)OCC2CCCN(CCOc3cccc(-c4ccccc4)c3)C2)C1=O (stereo not drawn) | 7.24 | 26.9 | 0.57 | – | –
O=C(OCC1CCCN(CCCc2ccccc2)C1)c1ccccc1N1C(=O)CC(CCc2ccccc2)C1=O (stereo not drawn) | 5.13 | 33.1 | 0.81 | – | –
COc1ccc(OCCCCCN2CCCC(COC(=O)c3ccccc3-c3ccccc3)C2)cc1 (stereo not drawn) | 14.5 | 22.4 | – | – | –
COc1ccc(OCCN2CCCC(COC(=O)c3ccccc3N3C(=O)CC(C)C3=O)C2)cc1 (stereo not drawn) | 66.1 | 12 | -0.75 | – | –
O=C(OCC1CCCN(CCCc2ccccc2)C1)c1ccccc1Cl (single isomer, unassigned) | 9.33 | 22.9 | 0.39 | – | –
O=C(NCc1ccccc1-c1ccccc1)C1CCCN(CCCc2ccccc2)C1 (single isomer, unassigned) | 16.6 | 14.5 | -0.06 | – | –
CC1CC(=O)N(c2ccccc2C(=O)OCC2CCCN(CCOc3cccc4ccccc34)C2)C1=O (stereo not drawn) | 3.89 | 15.8 | 0.61 | – | –
O=C(OCC1CCCN(CCCc2ccccc2)C1)c1ccccc1N1C(=O)CC(Cc2ccc(Cl)cc2)C1=O (stereo not drawn) | 10.7 | 14.5 | 0.14 | – | –
c1ccc(CCCN2CCCC(COCc3ccccc3-c3ccccc3)C2)cc1 (stereo not drawn) | 12.6 | 15.5 | 0.09 | – | –
COc1ccccc1C(=O)OCC1CCCN(CCCc2ccccc2)C1 (single isomer, unassigned) | 7.94 | 12 | 0.19 | – | –
O=C(OCC1CCCNC1)c1ccccc1-c1ccccc1 (single isomer, unassigned) | 7.08 | 8.13 | 0.06 | – | –
CC1CC(=O)N(c2ccccc2C(=O)OCC2CCCN(CCOc3ccc(Cl)c(Cl)c3)C2)C1=O (stereo not drawn) | 15.1 | 17.4 | 0.06 | – | –
COc1cccc(OCCCCCN2CCCC(COC(=O)c3ccccc3N3C(=O)CC(C)C3=O)C2)c1OC (stereo not drawn) | 8.71 | – | – | – | –
O=C(OCC1CCCN(CCCc2ccccc2)C1)c1ccccc1-c1cccc2ccccc12 (stereo not drawn) | – | – | 0.73 | – | –
COc1ccc(OCCCCCN2CCCC(COC(=O)c3ccccc3N3C(=O)CC(C)C3=O)C2)cc1 (stereo not drawn) | 14.5 | – | – | – | –
c1ccc(-c2ccccc2COCC2CCCNC2)cc1 (stereo not drawn) | 4.17 | – | – | – | –
CC1CC(=O)N(c2ccccc2C(=O)OCC2CCCN(CCCCCOc3ccccc3)C2)C1=O (stereo not drawn) | 17 | – | – | – | –
